# Reference: PMC5103216, “Novel Agonist Bioisosteres and Common Structure-Activity Relationships for The Orphan G Protein-Coupled Receptor GPR139” (Scientific Reports, 2016)
# pEC50: −log10 of the molar value. Entries after “also recorded” stand apart in the source; their conditions may differ. Where two headings read alike, the source gives them in different places.
# Legend:
# GPR139 [1] = target: T1, GPR139 (Homo sapiens, UniProt Q6DWJ6); assay: IP-One HTRF assay measuring Gq activation in CHO-139; type: cell-based
# T1 sequence (Q6DWJ6 1-353): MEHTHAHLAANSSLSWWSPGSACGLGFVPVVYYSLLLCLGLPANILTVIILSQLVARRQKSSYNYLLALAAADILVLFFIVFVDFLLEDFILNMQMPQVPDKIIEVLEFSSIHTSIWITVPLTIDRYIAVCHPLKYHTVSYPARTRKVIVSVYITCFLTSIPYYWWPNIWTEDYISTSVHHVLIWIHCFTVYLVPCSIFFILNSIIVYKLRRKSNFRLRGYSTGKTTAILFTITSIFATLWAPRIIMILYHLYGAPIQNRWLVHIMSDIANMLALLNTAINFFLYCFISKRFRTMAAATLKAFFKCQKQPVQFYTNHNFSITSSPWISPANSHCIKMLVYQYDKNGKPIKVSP
# Method: Figure 3 IP-One HTRF® assay measuring Gq activation. Concentration-response curves of 1a, 7c (racemic), L-Trp, L-Phe, DL43, DL126, DL24, DL22, DL132 and DL130 on (A) CHO-139 and (B) CHO-M1 in the IP-One assay (final conc of LiCl = 20 mM). The dotted line represent the [IP1] response from (A) 10 μM 1a and (B) 1 μM carbachol, which is an agonist for the muscarinic acethylcholine receptor M1 that activates the Gq coupled pathway. The graphs are means ± SEM based on three independent experiments performed in triplicates.
# The IP-One assay was performed as described in the work by Thomsen et al.[28], with few modifications. Breifly, CHO-139 and CHO-M1 were detached and re-suspended to a concentration of 10 million cells/mL. 5 μL 2x concentrated compound (+40 mM LiCl) and 5 μL cell suspension (50,000 cells/well) was mixed. The plate was sealed and incubated at 37 °C for 1 hour. Next, 10 μL detection reagents (lysis buffer containing 2.5% Eu^3+-anti-IP1 antibody and 2.5% IP1-d2) was added and the plate was incubated for 1 hour at room temperature. The plate was read on an Envision (PerkinElmer, Waltham, MA, USA). The time resolved-fluorescence resonance energy transfer (TR-FRET) 665 nm/615 nm ratio, which is inversely proportional to the inositol monophosphate (IP1) accumulation, was used to determine the concentration of the IP1 response.
# GPR139 [2] = target: T1, GPR139; set-up: method as in ref 11 (Shi et al.); settings: ref 11 (Shi et al.), cited from earlier work; for pEC50: GPR139 agonist potency
# GPR139 [3] = target: T1, GPR139; set-up: method as in ref 13, 14 (Dvorak et al.); settings: 14 (Dvorak et al.), cited from earlier work; for Emax: relative to L-Trp; for pEC50: mean of at least three experiments
# GPR139 [4] = target: T1, GPR139; assay: Fluo-4 Ca2+-assay in CHO-k1 cells stably expressing GPR139 (CHO-GPR139); type: cell-based; settings: for Emax: CHO-K1, relative to 1a
# Method: Compound 1a[11] was kindly provided by H. Lundbeck A/S, Denmark. Compound 7c (Enamine no: Z31449867) was tested as a racemate, as the (S)-form described by Janssen et al. was not commercially available. All compounds were dissolved to 20 mM in DMSO (Sigma, D2650) and subsequently diluted in a HEPES buffer (HBSS (Invitrogen, 14025) supplemented with 20 mM HEPES + 1 mM MgCl2 + 1 mM CaCl2, pH = 7.4) to a final concentration 0.5% DMSO in the assay. The DMSO level was kept constant for all concentrations of all compounds. DMSO was confirmed not to have any activity by itself at this concentration. L-Tryptophan (T0254) and L-Phenylalanine (P2126) were obtained from Sigma-Aldrich and dissolved directly in buffer.
# All compounds were tested on a CHO-k1 cell line stably expressing GPR139 (CHO-GPR139) kindly provided by H. Lundbeck A/S, Denmark, and also on a CHO-k1 cell line stably expressing the M1 receptor (CHO-M1) (The Missouri S&T cDNA Resource Center, #CEM100TN00) to check for specificity. The CHO-GPR139 was grown in Dulbecco’s modified eagle medium (DMEM) F12-Kaighn’s (Gibco, 21127) supplemented with 10% dialysed fetal bovine serum (Gibco, 26400, United States origin), 1% GlutaMAX^TM-I (100X) (Gibco, 35050), and 100 units/mL penicillin and 100 μg/mL streptomycin (Gibco, 15140) and 1.0 mg/mL geneticin (Invitrogen, 1181103). CHO-M1 was grown in Ham’s F12 (Gibco, 21765) supplemented with 10% fetal bovine serum (Gibco, 10270, South America origin) +100 units/mL penicillin and 100 μg/mL streptomycin (Invitrogen, 15140–122) and 0,25 mg/mL geneticin (Life Technologies, 11811–031). Compound 1a and carbamoylcholine chloride (Sigma-Aldrich, C4382) were used as positive controls in the two cell lines, respectively.
# 30.000 cells/well were plated in black 96-well plates with flat clear bottoms (Corning, Falcon, 353219) and incubated overnight. The Fluo-4 dye loading solution (Invitrogen, F36206) was prepared according to the manufacturer’s instructions by dissolving it in HEPES buffer supplemented with 2.5 mM probenecid. 50 μL dye loading solution was added to each well. Cells were incubated with the Fluo-4 dye for 60 min at 37 °C, then washed with 100 μL HEPES buffer. 100 μL HEPES buffer supplemented with 2.5 mM probenecid was then added to each well and incubated in 10 minutes at 37 °C before measurement. 33 μL of the test compounds (4x concentrated) were added automatically after baseline measurements. Intracellular calcium change was recorded on a NOVOstar instrument (BMG Labtech) at 37 °C with an excitation filter of 485 nm and an emission filters 520 nm. Data originate from three independent experiments in triplicates.
# [5] = CHO-GPR139, mean of at least three experiments
Compound,Emax (GPR139 [2]),Emax (GPR139 [3]),further results
CC(NC(=O)CNC(=O)c1cccc(Cl)c1)c1ccccc1 (racemic) [7c (racemic)],,,"pEC50 (GPR139 [1]; IP-One HTRF assay, CHO-139, 20 mM LiCl): 6.31; Emax (GPR139 [1]; IP-One HTRF assay, relative to compound 1a, 7c at 10 μM and L-Trp at 20 mM (highest concentration tested)): 120^(*) %; agonist type (GPR139 [1]; IP-One assay, compared to compound 1a): super-agonists"
O=C(NNC(=O)c1ccccc1)Nc1cccc2ccccc12 [1b],85%,,pEC50 (GPR139 [2]): 5.62
CCOc1ccccc1C(=O)NNC(=O)Nc1cccc2ccccc12 [1d],53%,,
CCc1cc(CC)cc(C(=O)NNC(=O)Nc2cccc3ccccc23)c1 [1e],6%,,
O=C(NNC(=O)c1ccc(F)cc1)Nc1cccc2ccccc12 [1g],96%,,pEC50 (GPR139 [2]): 6.36
COc1cc(C(=O)NNC(=O)Nc2cccc3ccccc23)cc(OC)c1OC [1h],76%,,pEC50 (GPR139 [2]): 7.20
O=C(NNC(=O)c1ccc(Oc2ccccc2)cc1)Nc1cccc2ccccc12 [1i],61%,,pEC50 (GPR139 [2]): 5.68
COc1cc(OC)cc(C(=O)NNC(=O)Nc2ccc(Br)c3ccccc23)c1 [1j],73%,,
COc1cc(OC)cc(C(=O)NNC(=O)Nc2ccc(C#N)c3ccccc23)c1 [1k],20%,,
COc1cc(OC)cc(C(=O)NNC(=O)Nc2c(C)ccc3ccccc23)c1 [1l],86%,,pEC50 (GPR139 [2]): 7.07
COc1cc(OC)cc(C(=O)NNC(=O)Nc2ccc(Cl)c3ccccc23)c1 [1m],64%,,
COc1cc(OC)cc(C(=O)NNC(=O)Nc2cccc3c(Br)cccc23)c1 [1n],54%,,
COc1cc(OC)cc(C(=O)NNC(=O)Nc2cccc3ccc(OC)cc23)c1 [1o],50%,,
COc1cc(CNNC(=O)Nc2cccc3ccccc23)cc(OC)c1 [1p],,,pEC50 (GPR139 [2]): < 5.00
COc1cc(OC)cc(C(=O)CNC(=O)Nc2cccc3ccccc23)c1 [1q],100%,,pEC50 (GPR139 [2]): 5.48
COc1cc(OC)cc(C(=O)NCC(=O)Nc2cccc3ccccc23)c1 [1r],98%,,pEC50 (GPR139 [2]): 6.74
COc1cc(OC)cc(C(=O)N(C)NC(=O)Cc2cccc3ccccc23)c1 [1t],74%,,pEC50 (GPR139 [2]): 5.60
COc1cc(OC)cc(C(=O)NN(C)C(=O)Cc2cccc3ccccc23)c1 [1u],84%,,pEC50 (GPR139 [2]): 5.29
C[C@H](NC(=O)CNC(=O)c1ccccc1)c1ccccc1 [7a],,130%,
C[C@H](NC(=O)CNC(=O)c1ccc(Cl)cc1)c1ccccc1 [7d],,117%,
Cc1cccc(C(=O)NCC(=O)N[C@@H](C)c2ccccc2)c1 [7e],,137%,
C[C@H](NC(=O)CNC(=O)c1cccc(C#N)c1)c1ccccc1 [7f],,129%,
C[C@H](NC(=O)CNC(=O)c1cccc(F)c1)c1ccccc1 [7g],,118%,

Compound,Emax (GPR139 [2]),Emax (GPR139 [3]),further results
COc1cccc(C(=O)NCC(=O)N[C@@H](C)c2ccccc2)c1 [7h],,146%,
C[C@H](NC(=O)CNC(=O)c1cccc(C(F)(F)F)c1)c1ccccc1 [7i],,134%,
C[C@H](NC(=O)CNC(=O)c1cccc(OC(F)(F)F)c1)c1ccccc1 [7j],,129%,
C[C@H](NC(=O)CNC(=O)c1cccc(Cl)c1Cl)c1ccccc1 [7k],,113%,
C[C@H](NC(=O)CNC(=O)c1ccc(Cl)c(Cl)c1)c1ccccc1 [7l],,106%,
C[C@H](NC(=O)CNC(=O)c1cc(Cl)ccc1Cl)c1ccccc1 [7m],,139%,
C[C@H](NC(=O)CNC(=O)c1cc(Cl)cc(Cl)c1)c1ccccc1 [7n],,119%,
C[C@H](NC(=O)CNC(=O)c1cc(F)cc(Cl)c1)c1ccccc1 [7o],,124%,
C[C@H](NC(=O)CNC(=O)c1cc(Cl)cc(Br)c1)c1ccccc1 [7p],,113%,
COc1cc(OC)cc(C(=O)NCC(=O)N[C@@H](C)c2ccccc2)c1 [7q],,149%,
CCN1C(C)=NC2C=C(C(=O)NNC(=O)c3c(-c4ccccc4)noc3C)C=CC21 (stereo not drawn) [DL83],,,pEC50 (GPR139 [4]; values in text): < 5.00
CCn1c(C)nc2cc(C(=O)NNC(=O)Cc3coc4ccc5ccccc5c34)ccc21 [DL85],,,pEC50 (GPR139 [4]; [5]): 5.99; Emax (GPR139 [4]): 95%; pEC50 (GPR139 [4]; values in text): 5.99
COc1cc(OC)cc(C(=O)NNC(=O)c2cccc3ccccc23)c1 [DL96],,,GPR139 agonist activity (in words) (GPR139 [4]; CHO-GPR139): loss of activity; also recorded: Inactive
CN(C(=O)CNC(=O)c1ccc2c(c1)OCO2)C1CCc2ccccc21 (stereo not drawn) [DL131],,,pEC50 (GPR139 [4]; [5]): 5.96; Emax (GPR139 [4]): 101%
O=C(CN1CCCc2ccccc21)NNC(=O)c1ccc2[nH]cnc2c1 [DL144],,,pEC50 (GPR139 [4]; [5]): 5.94; Emax (GPR139 [4]): 96%
CCn1c(C)nc2cc(C(=O)NNC(=O)CC(C)c3ccccc3)ccc21 (stereo not drawn) [DL146],,,pEC50 (GPR139 [4]; [5]): 5.33; Emax (GPR139 [4]): 85%; pEC50 (GPR139 [4]; values in Figure 5 and Supplementary Chart 1): 5.33
C=C(C)c1cccc(C(C)(C)NC(=O)NNC(=O)c2ccc3c(c2)nc(C)n3CC)c1 [DL148],,,pEC50 (GPR139 [4]; [5]): 5.92; Emax (GPR139 [4]): 100%
COc1cc(OC)cc(C(=O)NCCC(=O)N2CCCc3ccccc32)c1 [DL154],,,pEC50 (GPR139 [4]; [5]): 5.82; Emax (GPR139 [4]): 91%
C[C@H](NC(=O)CNCc1cccc(Cl)c1)c1ccccc1 [compound 8],,,pEC50 (GPR139 [3]): < 5.00
C[C@H](NCCNC(=O)c1cccc(Cl)c1)c1ccccc1 [compound 9],,,pEC50 (GPR139 [3]): < 5.00
COc1cccc(C(=O)N[C@@H](C)C(=O)N[C@@H](C)c2ccccc2)c1 [compound 10],,143%,
COc1cccc(C(=O)N[C@H](C)C(=O)N[C@@H](C)c2ccccc2)c1 [compound 11],,88%,
COc1cccc(C(=O)N[C@@H](CO)C(=O)N[C@@H](C)c2ccccc2)c1 [compound 12],,107%,
